# Structures can show the parent of a compound that is named as a salt.
# Assay: Oral pharmacokinetics of nalbuphine HCl solution versus tablets, fed and fasted, across studies
# Conditions: human, plasma
smiles,measurement,value
"Oc1ccc2c3c1O[C@H]1[C@@H](O)CC[C@@]4(O)[C@@H](C2)N(CC2CCC2)CC[C@]314 [nalbuphine, 17-(cyclobutylmethyl)-4,5α-epoxymorphinan-3,6α,14-triol, hydrochloride]",Tmax,0.5 to 1 h
same,half-life,6.87 to 6.99 h

# Reference: patent US20150359789A1, “METHODS FOR TREATING PRURITUS” (TREVI THERAPEUTICS, INC., priority 2014, published 2015)
